Source: article PMC6582486, “Stapled EGFR peptide reduces inflammatory breast cancer and inhibits additional HER-driven models of cancer” (Journal of Translational Medicine, 2019)
pIC50: −log10 of the molar value. Read-outs that look alike come from different tables or passages of the source. Where a SMILES comes first, the peptide text is derived from it. Bridges are numbered along the chain shown (N, C = ends). Where no end group is shown, it is not given here. [ ]: non-standard residue; d: D form. R8 = C=CCCCCCC[C@@](C)(N)C(=O)O; S5 = C=CCCC[C@](C)(N)C(=O)O

Tests used:
[1] = tested on: MDA-MB-468 breast cancer cells; assay type: cell-based, human; settings: 24 h
Source text: Fig. 1 Hydrocarbon stapling leads to increased EJ1 activity in comparison to HER-directed monoclonal therapies. a EJ1 sequence with PTD4 domain (underlined) corresponding to EGFR juxtamembrane domain sequence 643–663. Stabilized alpha helix (SAH) variations 1–5 beneath, with asterisks (*) indicating sites of staple. Control peptide (CP) with altered residues indicated by double underline. Stapled control (5) asterisks (*) indicate sites of staple. b Cartoon representation of EJ1 structure, with staple variation 5 highlighted. Positively charged residues indicated in blue, negatively charged residues in red. c Cartoon representation of CP structure, with staple variation highlighted. d Cell viability assay performed in MDA-MB-468 cells after 24 h comparing unstapled EJ1 versus staple variations SAH1, SAH4, and SAH5, with increasing concentrations. e Visualization of MDA-MB-468 cells untreated, treated with 10 µM EJ1, and 10 µM SAH5-EJ1 after 60 min. Scale bars represent 50 µm. f–h Cell viability assay performed in MDA-MB-468, MCF10A, or CHO cells over 3 days comparing treatment with Sapitinib (blue lines), SAH5-EJ1 (red lines), and SAH5-CP (grey lines). […] Data shown in d, f, g–i represent mean ± percent difference of assays performed in triplicate 1000–3000 cells were plated in 96-well plates (Falcon; Corning, NY) and allowed to adhere for 24–48 h prior to therapeutic introduction. Compounds were added and incubated on cells for 3 days in serum-containing media, followed by 2 h treatment with MTT (Sigma M5655) with the resulting formazan solubilized in DMSO. Absorbance was read at 540 nm by plate reader (uQuant, Bio-Tek Instruments). P-values were calculated from a one-way ANOVA.

CHO cells = experiment: Cell viability assay (MTT), CHO; assay type: cell-based, Chinese Hamster; settings: up to 3 days
Source text: (§1) Fig. 1 Hydrocarbon stapling leads to increased EJ1 activity in comparison to HER-directed monoclonal therapies. a EJ1 sequence with PTD4 domain (underlined) corresponding to EGFR juxtamembrane domain sequence 643–663. Stabilized alpha helix (SAH) variations 1–5 beneath, with asterisks (*) indicating sites of staple. Control peptide (CP) with altered residues indicated by double underline. Stapled control (5) asterisks (*) indicate sites of staple. b Cartoon representation of EJ1 structure, with staple variation 5 highlighted. Positively charged residues indicated in blue, negatively charged residues in red. c Cartoon representation of CP structure, with staple variation highlighted. d Cell viability assay performed in MDA-MB-468 cells after 24 h comparing unstapled EJ1 versus staple variations SAH1, SAH4, and SAH5, with increasing concentrations. e Visualization of MDA-MB-468 cells untreated, treated with 10 µM EJ1, and 10 µM SAH5-EJ1 after 60 min. Scale bars represent 50 µm. f–h Cell viability assay performed in MDA-MB-468, MCF10A, or CHO cells over 3 days comparing treatment with Sapitinib (blue lines), SAH5-EJ1 (red lines), and SAH5-CP (grey lines). […] Absorbance was read at 540 nm by plate reader (uQuant, Bio-Tek Instruments). P-values were calculated from a one-way ANOVA.

[2] = tested on: SUM149 inflammatory breast cancer cells; assay type: cell-based; settings: SUM149, 10 µM
Experimental: 1000–3000 cells were plated in 96-well plates (Falcon; Corning, NY) and allowed to adhere for 24–48 h prior to therapeutic introduction. Compounds were added and incubated on cells for 3 days in serum-containing media, followed by 2 h treatment with MTT (Sigma M5655) with the resulting formazan solubilized in DMSO. Absorbance was read at 540 nm by plate reader (uQuant, Bio-Tek Instruments). P-values were calculated from a one-way ANOVA.
Fig. 4 SAH5-EJ1 effectively treats models of basal and inflammatory breast cancers while increasing survival. a Changes in tumor burden in breast cancer PDX mouse model TM01278 with various concentrations of intravenous SAH5-EJ1. Control represents water as a vehicle control. *p < 0.05 (Control vs 1 µg/g); **p < 0.01 (Control vs 1 µg/g and vs 10 µg/g). N = 6 for each condition. b Kaplan–Meier curve of breast PDX mouse model treated with control (blue) or either 1 or 10 µg/g SAH5-EJ1 (green and red, respectively) (red asterisks indicate time point at which mice could no longer receive injections due to site toxicity). Data shown represent mean. N = 6 for all groups. c Cell viability assay performed in SUM149 cells over 3 days comparing treatment with Sapitinib (blue) to SAH5-EJ1 (red) and SAH5-CP (grey). Solid lines represent 24 h; dashed lines represent 72 h. Data shown represent mean ± percent difference of assays performed in triplicate. d Kaplan–Meier curve of inflammatory breast cancer SUM149-injected mouse model treated with injected control (water) (blue) or either 0.5 or 5 µg/g SAH5-EJ1 (green and red, respectively). Data shown represent mean. N = 8 for all groups. e Changes in tumor burden in SUM149-generated tumors with various doses of SAH5-EJ1. Control represents water (blue). Arrow indicates transition from intravenous (IV) SAH5-EJ1 injections to intraperitoneal (IP) on day 66. **p < 0.01 (Control vs 0.5 µg/g and vs 5 µg/g). Data shown represent mean ± standard deviation. N = 8 for all groups. f Images of mouse tumors taken on Day 116. Arrowheads indicate tumor site. Representative images selected. […]

MCF10A breast cells = experiment: Cell viability assay (MTT), MCF10A; assay type: cell-based, human; settings: 72 h of treatment, maximum reduction
Source text: as §1

[3] = cited from earlier work
Source text: Despite variations in extracellular ligand binding abilities and intracellular tyrosine kinase activity, HER1-3 share homology in their juxtamembrane domain [15]. Within the juxtamembrane domain are sequences responsible for targeting HER proteins to the nucleus, binding to calcium/calmodulin, trafficking to the basolateral domain from the trans-Golgi network, and dimerization, an event required for HER activation and downstream signaling.

Compound: CC[C@H](C)[C@H](NC(=O)[C@H](Cc1c[nH]cn1)NC(=O)[C@H](CCCNC(=N)N)NC(=O)[C@H](CCCNC(=N)N)NC(=O)[C@H](CCCNC(=N)N)NC(=O)[C@H](CCSC)NC(=O)[C@H](Cc1ccccc1)NC(=O)[C@H](C)NC(=O)[C@H](CCCNC(=N)N)NC(=O)[C@H](C)NC(=O)[C@H](CCC(N)=O)NC(=O)[C@H](CCCNC(=N)N)NC(=O)[C@H](C)NC(=O)[C@H](C)NC(=O)[C@H](C)NC(=O)[C@H](CCCNC(=N)N)NC(=O)[C@H](C)NC(=O)[C@@H](N)Cc1ccc(O)cc1)C(=O)N[C@]1(C)CCCCCCC=CCCC[C@@](C)(C(=O)N[C@@H](CC(C)C)C(=O)N[C@@H](CC(C)C)C(=O)N[C@@H](CCC(N)=O)C(=O)N[C@@H](CCC(=O)O)C(=O)N[C@@H](CCCNC(=N)N)C(=O)N[C@@H](CCC(=O)O)C(N)=O)NC(=O)[C@H](CCCNC(=N)N)NC(=O)[C@H](CC(C)C)NC(=O)[C@H]([C@@H](C)O)NC(=O)[C@H](CCCNC(=N)N)NC(=O)[C@H](CCCCN)NC(=O)[C@H](CCCNC(=N)N)NC1=O [SAH1-EJ1] (H-YARAAARQARAFMRRRHI[R8]RKRTLR[S5]LLQERE-NH2; staple 19-26)
- pIC50 [1]: 5.00

Compound: CC[C@H](C)[C@@H]1NC(=O)[C@H](Cc2c[nH]cn2)NC(=O)[C@H](CCCNC(=N)N)NC(=O)[C@H](CCCNC(=N)N)NC(=O)[C@H](CCCNC(=N)N)NC(=O)[C@](C)(NC(=O)[C@H](Cc2ccccc2)NC(=O)[C@H](C)NC(=O)[C@H](CCCNC(=N)N)NC(=O)[C@H](C)NC(=O)[C@H](CCC(N)=O)NC(=O)[C@H](CCCNC(=N)N)NC(=O)[C@H](C)NC(=O)[C@H](C)NC(=O)[C@H](C)NC(=O)[C@H](CCCNC(=N)N)NC(=O)[C@H](C)NC(=O)[C@@H](N)Cc2ccc(O)cc2)CCCCCCC=CCCC[C@@](C)(C(=O)N[C@@H](CCCCN)C(=O)N[C@@H](CCCNC(=N)N)C(=O)N[C@H](C(=O)N[C@@H](CC(C)C)C(=O)N[C@@H](CCCNC(=N)N)C(=O)N[C@@H](CCCNC(=N)N)C(=O)N[C@@H](CC(C)C)C(=O)N[C@@H](CC(C)C)C(=O)N[C@@H](CCC(N)=O)C(=O)N[C@@H](CCC(=O)O)C(=O)N[C@@H](CCCNC(=N)N)C(=O)N[C@@H](CCC(=O)O)C(N)=O)[C@@H](C)O)NC(=O)[C@H](C(C)C)NC1=O [SAH4-EJ1] (H-YARAAARQARAF[R8]RRRHIV[S5]KRTLRRLLQERE-NH2; staple 13-20)
- pIC50 [1]: 5.00

Compound: CNC(=O)CN1CCC(Oc2cc3c(Nc4cccc(Cl)c4F)ncnc3cc2OC)CC1 [Sapitinib, reference compound]
- efficacy / response in words (CHO cells): limited efficacy
- cell viability ([2]; 24 h): no reduction in cell viability
- cell viability ([2]; 3 days): 35%
- reduction of cell viability (MCF10A breast cells): ≤ 70%

Compound: YARAAARQARAFMRRRHIVRKRTLRRLLQERE [EJ1]
- time to degradation when introduced to plasma [3]: less than 5 min
- pIC50 [1]: 4.74
